In DBAASP:
Values after ≈ are worked out from the molar mass of the structure shown.

How the values were obtained:
Assay in all cases: ≥ marks a high value that may be exact or a test limit, other limits are often not marked, values filed in µg/mL are converted to µM
[1] = tested on: Stenotrophomonas sp. ICB 7569
Escherichia coli O157:H7 = tested on: Escherichia coli O157:H7
[2] = tested on: Salmonella typhimurium CMCC 50115
[3] = tested on: Klebsiella pneumoniae 57 USA
[4] = tested on: Bacillus subtilis ATCC 63501
Escherichia coli Neumann = tested on: Escherichia coli Neumann
[5] = tested on: Enterobacter cloacae Ha088
Klebsiella pneumoniae = tested on: Klebsiella pneumoniae
[6] = tested on: Acinetobacter baumannii ICB 14073
Escherichia coli JJ2487 = tested on: Escherichia coli JJ2487
[7] = tested on: Pseudomonas aeruginosa Pa4216
Escherichia coli J2210 = tested on: Escherichia coli J2210
[8] = tested on: Pseudomonas aeruginosa DSM 3227
[9] = tested on: Pseudomonas aeruginosa ATCC 27853
[10] = tested on: Acinetobacter baumannii Ab5755
Escherichia coli Ec513 = tested on: Escherichia coli Ec513
Escherichia coli = tested on: Escherichia coli
[11] = tested on: Klebsiella pneumoniae ATCC 12657
[12] = tested on: Escherichia coli DSM 1103
Escherichia coli MC1061 = tested on: Escherichia coli MC1061
[13] = tested on: Salmonella typhimurium SL1344
[14] = tested on: Acinetobacter baumannii ICB 9250
[15] = tested on: Enterobacter cloacae Ha89
[16] = tested on: Pseudomonas aeruginosa Walter
[17] = tested on: Klebsiella pneumoniae DSM 681
[18] = tested on: Pseudomonas aeruginosa Pa1409
[19] = tested on: Enterobacter cloacae 34654
[20] = tested on: Shigella dysenteriae CMCC 51252
[21] = tested on: Proteus vulgaris ICB 9095
[22] = tested on: Enterobacter cloacae Ha089
Escherichia coli BL21AI = tested on: Escherichia coli BL21AI
[23] = tested on: Shigella flexneri ATCC 12022
[24] = tested on: Escherichia coli ATCC 25922 ΔsbmA
[25] = tested on: Staphylococcus aureus Sa1390
[26] = tested on: Enterobacter cloacae Ha185
[27] = tested on: Acinetobacter baumannii ICB 14072
[28] = tested on: Klebsiella pneumoniae ATCC 10031

SMILES: CC[C@H](C)[C@H](NC(=O)[C@H](CCCN=C(N)N)NC(=O)[C@H](CCCN=C(N)N)NC(=O)[C@@H]1CCCN1C(=O)[C@@H]1CCCN1C(=O)[C@H](CCCN=C(N)N)NC(=O)[C@@H]1CCCN1C(=O)[C@H](CCCN=C(N)N)NC(=O)[C@@H]1CCCN1C(=O)[C@H](CC(C)C)NC(=O)[C@H](Cc1ccc(O)cc1)NC(=O)[C@@H]1CCCN1C(=O)[C@@H]1CCCN1C(=O)[C@H](CCCCN)NC(=O)[C@H](CC(=O)O)NC(=O)[C@@H](N)C(C)C)C(=O)N[C@@H](Cc1ccc(O)cc1)C(=O)N[C@@H](CC(N)=O)C(=O)N[C@@H](CCCN=C(N)N)C(N)=O [VDKPPYLPRPRPPRRIYNR]
- MIC [1]: 3.35 µM (≈ 8 µg/mL)
- MIC (Escherichia coli O157:H7): 1.31 µM (≈ 3.14 µg/mL)
- MIC [2]: 8 µM (≈ 19.1 µg/mL)
- MIC [3]: 0.105 µM (≈ 0.25 µg/mL)
- MIC [4]: ≥ 512 µM
- MIC (Escherichia coli Neumann): 0.837 µM (≈ 2 µg/mL)
- MIC [5]: 0.0523 µM (≈ 0.125 µg/mL)
- MIC (Klebsiella pneumoniae): 3.35 µM (≈ 8 µg/mL)
- MIC [6]: 0.837 µM (≈ 2 µg/mL)
- MIC (Escherichia coli JJ2487): 0.251 µM (≈ 0.6 µg/mL)
- MIC [7]: ≥ 53.5 µM
- MIC (Escherichia coli J2210): 0.33 µM (≈ 0.79 µg/mL)
- MIC [8]: 1.67 µM (≈ 4 µg/mL)
- MIC [9]: 1.67 µM (≈ 4 µg/mL)
- MIC [10]: ≥ 53.5 µM
- MIC (Escherichia coli Ec513): ≥ 53.5 µM
- MIC (Escherichia coli): 0.296 µM (≈ 0.707 µg/mL)
- MIC [11]: 0.209 µM (≈ 0.5 µg/mL)
- MIC [12]: 3.35 µM (≈ 8 µg/mL)
- MIC (Escherichia coli MC1061): 0.126 µM (≈ 0.3 µg/mL)
- MIC [13]: 0.251 µM (≈ 0.6 µg/mL)
- MIC [14]: 0.209 µM (≈ 0.5 µg/mL)
- MIC [15]: 0.105 µM (≈ 0.25 µg/mL)
- MIC [16]: 3.35 µM (≈ 8 µg/mL)
- MIC [17]: 1.67 µM (≈ 4 µg/mL)
- MIC [18]: ≥ 53.5 µM
- MIC [19]: 0.105 µM (≈ 0.25 µg/mL)
- MIC [20]: 8 µM (≈ 19.1 µg/mL)
- MIC [21]: 1.67 µM (≈ 4 µg/mL)
- MIC [22]: 0.0523 µM (≈ 0.125 µg/mL)
- MIC (Escherichia coli BL21AI): 1.67 µM (≈ 4 µg/mL)
- MIC [23]: 16 µM (≈ 38.2 µg/mL)
- MIC [24]: 16 µM (≈ 38.2 µg/mL)
- MIC [25]: ≥ 53.5 µM
- MIC [26]: 0.209 µM (≈ 0.5 µg/mL)
- MIC [27]: 0.418 µM (≈ 1 µg/mL)
- MIC [28]: 4 µM (≈ 9.56 µg/mL)
